Test results published in the NIST ThermoML archive (doi:10.1016/j.jct.2015.04.005).
Numbers after ± are expanded uncertainties.

Key:
[1] = 102.24 kPa, Liquid, Frequency=5 MHz, Single path-length method
[2] = xn = mol fraction of the nth substance listed; settings: 102.24 kPa, Liquid, x2 = 0; for speed of sound: Frequency=5 MHz, Single path-length method; for mass density: Vibrating tube method

Structure (SMILES)	speed of sound ([1]; 293.15 K)	speed of sound ([1]; 298.15 K)	speed of sound ([1]; 303.15 K)	speed of sound ([1]; 308.15 K)	speed of sound ([1]; 313.15 K)	speed of sound ([1]; 318.15 K)	speed of sound ([1]; 323.15 K)	speed of sound ([1]; 328.15 K)	speed of sound ([1]; 333.15 K)	speed of sound ([1]; 338.15 K)	speed of sound ([1]; 343.15 K)	speed of sound ([2]; 313.15 K)	mass density ([2]; 323.15 K)	speed of sound ([2]; 328.15 K)	mass density ([2]; 328.15 K)	speed of sound ([2]; 333.15 K)	mass density ([2]; 333.15 K)
CCC(=O)[O-].C[NH2+]CCO [2-hydroxy-N-methylethanaminium propionate]	1656.9 ± 8.1 m/s	1638.4 ± 8.1 m/s	1624.6 ± 8.1 m/s	1607 ± 8.1 m/s	1588.5 ± 8.1 m/s	1573.2 ± 8.1 m/s	1558.3 ± 8.1 m/s	1543.7 ± 8.1 m/s	1527 ± 8.1 m/s	1507.1 ± 8.1 m/s	1492.6 ± 8.1 m/s						
O [water] + CCC(=O)[O-].C[NH2+]CCO												1528.9 ± 8 m/s	988 ± 1.7 kg/m3	1547.4 ± 8 m/s	985.7 ± 1.7 kg/m3	1551 ± 8 m/s	983.2 ± 1.7 kg/m3
